Measurements as given in DBAASP.
Converted amounts (≈) assume the structure as drawn.

Assays:
Test in all cases: ≥ marks a high value that may be exact or a test limit, other limits are often not marked, values filed in µg/mL are converted to µM
[1] = system: Candida albicans NCPF 1467
[2] = system: Escherichia coli NCTC 10418
[3] = system: Staphylococcus aureus NCTC 10788
[4] = system: Bacillus subtilis 168
[5] = system: Pseudomonas aeruginosa
[6] = system: Staphylococcus aureus
[7] = system: Escherichia coli B
[8] = system: Staphylococcus aureus ATCC 9144
[9] = system: Corynebacterium glutamicum ATCC 13032
[10] = system: Pseudomonas aeruginosa ATCC 27853
[11] = system: Escherichia coli ATCC 25922
[12] = system: Streptococcus mutans
[13] = system: Staphylococcus aureus ATCC 25923
[14] = system: Escherichia coli UB1005
[15] = system: Candida albicans
[16] = system: Salmonella enterica serovar Typhimurium
[17] = system: Enterococcus faecalis ATCC 29212
[18] = system: Staphylococcus epidermidis
[19] = system: Pseudomonas aeruginosa H103
[20] = system: Escherichia coli BW25113

CC[C@H](C)[C@H](NC(=O)[C@H](C)NC(=O)[C@H](CCCCN)NC(=O)[C@@H]1CCCN1C(=O)[C@@H](NC(=O)[C@H](CC(C)C)NC(=O)[C@H](CCCCN)NC(=O)[C@H](Cc1ccccc1)NC(=O)[C@H](CC(C)C)NC(=O)[C@@H](N)Cc1ccccc1)[C@@H](C)CC)C(=O)N[C@@H](CCCCN)C(=O)NCC(=O)N[C@@H](CC(C)C)C(=O)N[C@H](C(=O)N[C@@H](CCCCN)C(=O)N[C@@H](C)C(=O)N[C@H](C(=O)N[C@@H](CCCN=C(N)N)C(=O)N[C@@H](CCCCN)C(N)=O)[C@@H](C)CC)C(C)C [FLFKLIPKAIKGLVKAIRK]
MIC [1]: 1.83 µM (≈ 4 µg/mL)
MIC [2]: 7.33 µM (≈ 16 µg/mL)
MIC [3]: 1.83 µM (≈ 4 µg/mL)

CC[C@H](C)[C@H](NC(=O)[C@H](C)NC(=O)[C@@H]1CCCN1C(=O)[C@H](CC(C)C)NC(=O)[C@@H](N)Cc1ccccc1)C(=O)N[C@@H](C)C(=O)NCC(=O)N[C@H](C(=O)N[C@@H](C)C(=O)N[C@@H](C)C(=O)N[C@@H](CCCCN)C(=O)N[C@@H](Cc1ccccc1)C(=O)N[C@@H](CC(C)C)C(=O)N1CCC[C@H]1C(=O)N[C@@H](CCCCN)C(=O)N[C@H](C(=O)N[C@@H](Cc1ccccc1)C(=O)N[C@H]1CSSC[C@@H](C(=O)O)NC(=O)[C@H](CCCCN)NC(=O)[C@H](CCCCN)NC(=O)[C@H]([C@@H](C)O)NC(=O)[C@H]([C@@H](C)CC)NC(=O)[C@H](C)NC1=O)[C@@H](C)CC)C(C)C [FLPAIAGVAAKFLPKIFCAITKKC]
MIC [1]: 3.14 µM (≈ 8 µg/mL)
MIC [2]: 25.1 µM (≈ 64 µg/mL)
MIC [3]: 6.28 µM (≈ 16 µg/mL)

CC[C@H](C)[C@H](NC(=O)[C@H](CCCCN)NC(=O)[C@H](CCCCN)NC(=O)[C@@H](NC(=O)[C@H](CC(C)C)NC(=O)[C@H](CCCCN)NC(=O)[C@@H]1CCCN1C(=O)[C@@H](NC(=O)[C@H](CC(C)C)NC(=O)[C@H](CO)NC(=O)[C@H](CC(C)C)NC(=O)[C@@H](N)Cc1ccccc1)[C@@H](C)CC)C(C)C)C(=O)N[C@H](C(=O)N[C@@H](CCCCN)C(=O)N[C@@H](C)C(=O)N[C@@H](Cc1ccccc1)C(=O)N[C@@H](CCCCN)C(=O)O)[C@@H](C)CC [FLSLIPKLVKKIIKAFK]
MIC [1]: 2.5 µM (≈ 4.97 µg/mL)
MIC [2]: 5 µM (≈ 9.93 µg/mL)
MIC [3]: 2.5 µM (≈ 4.97 µg/mL)

CC[C@H](C)[C@H](NC(=O)[C@H](CO)NC(=O)[C@H](CC(C)C)NC(=O)[C@H](Cc1ccccc1)NC(=O)CN)C(=O)N[C@@H](CC(C)C)C(=O)N[C@@H](CCCCN)C(=O)N[C@@H](CCCCN)C(=O)N[C@H](C(=O)N[C@@H](CC(C)C)C(N)=O)C(C)C [GFLSILKKVL]
MIC [4]: 2.9 µM (≈ 3.24 µg/mL)
MIC [5]: 59 µM (≈ 65.9 µg/mL)
MIC [6]: 10.9 µM (≈ 12.2 µg/mL)
MIC [7]: 9.1 µM (≈ 10.2 µg/mL)

CC(C)[C@H](NC(=O)[C@H](CCCCN)NC(=O)[C@H](C)NC(=O)[C@@H](NC(=O)[C@@H](NC(=O)[C@H](CCCN=C(N)N)NC(=O)[C@H](CCCN=C(N)N)NC(=O)[C@H](Cc1c[nH]c2ccccc12)NC(=O)[C@H](Cc1c[nH]c2ccccc12)NC(=O)CN)[C@@H](C)O)C(C)C)C(=O)N[C@@H](CCCN=C(N)N)C(=O)N[C@@H](CC(N)=O)C(N)=O [GWWRRTVAKVRN]
MIC [8]: ≥ 50 µM
MIC [9]: 1.6 µM (≈ 2.44 µg/mL)
MIC [10]: 6.3 µM (≈ 9.63 µg/mL)
MIC [11]: 6.3 µM (≈ 9.63 µg/mL)

CC(C)C[C@H](NC(=O)[C@H](Cc1cnc[nH]1)NC(=O)[C@H](CCCCN)NC(=O)[C@H](Cc1c[nH]c2ccccc12)NC(=O)[C@H](CCCN=C(N)N)NC(=O)[C@H](CCCCN)NC(=O)[C@H](Cc1ccccc1)NC(=O)[C@H](CC(C)C)NC(=O)[C@@H](N)CCCCN)C(=O)N[C@@H](Cc1ccccc1)C(=O)N[C@@H](CCCN=C(N)N)C(=O)O [KLFKRWKHLFR]
MIC [12]: ≥ 40.1 µM

NCCCC[C@H](NC(=O)[C@H](CCCN=C(N)N)NC(=O)[C@H](Cc1c[nH]c2ccccc12)NC(=O)[C@H](Cc1c[nH]c2ccccc12)NC(=O)[C@H](CCCN=C(N)N)NC(=O)[C@@H](N)CCCCN)C(=O)N[C@@H](Cc1c[nH]c2ccccc12)C(=O)N[C@@H](Cc1c[nH]c2ccccc12)C(=O)N[C@@H](CCCN=C(N)N)C(=O)O [KRWWRKWWR]
MIC [13]: 0.7 µM (≈ 1.04 µg/mL)
MIC [14]: 2.7 µM (≈ 4.02 µg/mL)
MIC [15]: 5.4 µM (≈ 8.03 µg/mL)
MIC [16]: 5.4 µM (≈ 8.03 µg/mL)
MIC [17]: 10.8 µM (≈ 16.1 µg/mL)
MIC [18]: 0.7 µM (≈ 1.04 µg/mL)
MIC [19]: ≥ 43.2 µM

CC[C@H](C)[C@H](NC(=O)[C@H](CCCCN)NC(=O)[C@H](CCCN=C(N)N)NC(=O)[C@H](Cc1c[nH]c2ccccc12)NC(=O)[C@H](Cc1c[nH]c2ccccc12)NC(=O)[C@H](Cc1c[nH]c2ccccc12)NC(=O)[C@H](CCCCN)NC(=O)[C@H](Cc1c[nH]c2ccccc12)NC(=O)[C@@H](N)CCCCN)C(=O)O [KWKWWWRKI]
MIC [13]: 1.2 µM (≈ 1.7 µg/mL)
MIC [14]: 4.6 µM (≈ 6.52 µg/mL)
MIC [15]: 4.6 µM (≈ 6.52 µg/mL)
MIC [16]: 4.6 µM (≈ 6.52 µg/mL)
MIC [17]: 4.6 µM (≈ 6.52 µg/mL)
MIC [18]: 1.2 µM (≈ 1.7 µg/mL)
MIC [19]: 4.6 µM (≈ 6.52 µg/mL)

CC[C@H](C)[C@H](NC(=O)[C@@H]1CCCN1C(=O)[C@@H]1CCCN1C(=O)[C@H](CCCN=C(N)N)NC(=O)[C@H](Cc1ccccc1)NC(=O)[C@@H](N)CCCN=C(N)N)C(=O)N[C@@H](CCCN=C(N)N)C(=O)N[C@@H](CCCN=C(N)N)C(=O)N1CCC[C@H]1C(=O)N1CCC[C@H]1C(=O)N[C@H](C(=O)N[C@@H](CCCN=C(N)N)C(=O)N1CCC[C@H]1C(=O)N1CCC[C@H]1C(=O)N[C@@H](Cc1c[nH]c2ccccc12)C(=O)N[C@@H](Cc1ccc(O)cc1)C(=O)N1CCC[C@H]1C(=O)O)[C@@H](C)CC [RFRPPIRRPPIRPPWYP]
MIC [20]: ≥ 32 µM

CC[C@H](C)[C@H](NC(=O)[C@@H]1CCCN1C(=O)[C@H](Cc1c[nH]c2ccccc12)NC(=O)[C@H](CCCN=C(N)N)NC(=O)[C@H](Cc1ccccc1)NC(=O)[C@@H](N)CCCN=C(N)N)C(=O)N[C@@H](CCCN=C(N)N)C(=O)N[C@@H](CCCN=C(N)N)C(=O)N1CCC[C@H]1C(=O)N1CCC[C@H]1C(=O)N[C@H](C(=O)N[C@@H](CCCN=C(N)N)C(=O)N1CCC[C@H]1C(=O)N1CCC[C@H]1C(=O)N[C@@H](Cc1ccccc1)C(=O)N[C@@H](Cc1ccc(O)cc1)C(=O)N1CCC[C@H]1C(=O)O)[C@@H](C)CC [RFRWPIRRPPIRPPFYP]
MIC [20]: 8 µM (≈ 18 µg/mL)

CC[C@H](C)[C@H](NC(=O)[C@@H]1CCCN1C(=O)[C@H](CCCN=C(N)N)NC(=O)[C@H](CCCN=C(N)N)NC(=O)[C@H](CCCN=C(N)N)NC(=O)[C@@H](N)CCCN=C(N)N)C(=O)N[C@@H](CCCN=C(N)N)C(=O)N[C@@H](CCCN=C(N)N)C(=O)N[C@@H](CCCN=C(N)N)C(=O)N1CCC[C@H]1C(=O)N[C@H](C(=O)N[C@@H](CCCN=C(N)N)C(=O)N1CCC[C@H]1C(=O)N1CCC[C@H]1C(=O)N[C@@H](Cc1ccccc1)C(=O)N[C@@H](Cc1ccc(O)cc1)C(=O)N[C@@H](CCCN=C(N)N)C(=O)O)[C@@H](C)CC [RRRRPIRRRPIRPPFYR]
MIC [20]: 16 µM (≈ 37.6 µg/mL)

NC(=O)[C@H](Cc1ccccc1)NC(=O)[C@H](Cc1c[nH]c2ccccc12)NC(=O)[C@H](Cc1c[nH]c2ccccc12)NC(=O)[C@H](Cc1c[nH]c2ccccc12)NC(=O)[C@H](CCCN=C(N)N)NC(=O)[C@H](CCCN=C(N)N)NC(=O)[C@H](CCCN=C(N)N)NC(=O)CNC(=O)CNC(=O)CNC(=O)[C@H](Cc1ccccc1)NC(=O)[C@H](Cc1c[nH]c2ccccc12)NC(=O)[C@H](Cc1c[nH]c2ccccc12)NC(=O)[C@H](Cc1c[nH]c2ccccc12)NC(=O)[C@H](CCCN=C(N)N)NC(=O)[C@H](CCCN=C(N)N)NC(=O)[C@@H](N)CCCN=C(N)N [RRRWWWFGGGRRRWWWF]
MIC [12]: 6.3 µM (≈ 16 µg/mL)

CC[C@H](C)[C@H](NC(=O)[C@@H]1CCCN1C(=O)[C@H](CCCN=C(N)N)NC(=O)[C@H](CCCN=C(N)N)NC(=O)[C@H](Cc1c[nH]c2ccccc12)NC(=O)[C@@H](N)CCCN=C(N)N)C(=O)N[C@@H](CCCN=C(N)N)C(=O)N[C@@H](CCCN=C(N)N)C(=O)N[C@@H](CCCN=C(N)N)C(=O)N1CCC[C@H]1C(=O)N[C@H](C(=O)N[C@@H](CCCN=C(N)N)C(=O)N1CCC[C@H]1C(=O)N1CCC[C@H]1C(=O)N[C@@H](Cc1c[nH]c2ccccc12)C(=O)N[C@@H](Cc1ccc(O)cc1)C(=O)N[C@@H](CCCN=C(N)N)C(=O)O)[C@@H](C)CC [RWRRPIRRRPIRPPWYR]
MIC [20]: 8 µM (≈ 19.3 µg/mL)

NCCCC[C@H](NC(=O)[C@H](Cc1c[nH]c2ccccc12)NC(=O)[C@H](CCCN=C(N)N)NC(=O)[C@H](Cc1c[nH]c2ccccc12)NC(=O)[C@H](CCCN=C(N)N)NC(=O)[C@H](Cc1c[nH]c2ccccc12)NC(=O)[C@@H](N)CCCN=C(N)N)C(=O)O [RWRWRWK]
MIC [12]: 27.3 µM (≈ 32 µg/mL)
